This is an account of results in paper PMC5431558, “Expression proteomics study to determine metallodrug targets and optimal drug combinations” (Scientific Reports, 2017).

Structures are written as SMILES.

In the experiment the target is T1, MAT2A (S-adenosylmethionine synthase isoform type-2) (Homo sapiens, UniProt P31153).
T1 construct: Recombinant human MAT2A (Addgene plasmid #53648), expressed in E. coli BL21 (DE3) Rosetta
Briefly: MAT2A enzymatic assay with pre-incubation, phosphate colorimetric readout. Format: biochemical.

T1 sequence (P31153 whole entry, canonical isoform): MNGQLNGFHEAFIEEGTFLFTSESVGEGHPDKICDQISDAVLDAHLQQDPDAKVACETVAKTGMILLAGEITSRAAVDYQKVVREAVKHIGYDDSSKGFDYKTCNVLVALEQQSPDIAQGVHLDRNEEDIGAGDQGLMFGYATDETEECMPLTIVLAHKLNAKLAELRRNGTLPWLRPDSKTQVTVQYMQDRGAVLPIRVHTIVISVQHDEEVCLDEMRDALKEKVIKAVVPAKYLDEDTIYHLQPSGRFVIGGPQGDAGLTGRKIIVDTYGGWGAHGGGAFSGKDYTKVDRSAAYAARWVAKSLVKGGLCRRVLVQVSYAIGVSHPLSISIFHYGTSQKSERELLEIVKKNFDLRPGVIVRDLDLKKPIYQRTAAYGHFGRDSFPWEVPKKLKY

Consider `C1N2CN3CN1CP(C2)C3.Cc1ccccc1.[Cl][Ru][Cl]` [RAPTA-T], for which the IC50 amounted to 107 ± 13 µM.

A word on the IC50: it is the concentration at which inhibition is half-maximal. A lower IC50 goes with greater potency in that assay.
